According to patent US5614370A, “Assay to identify human C5a antagonists and agonists” (Merck & Co., Inc., priority 1994, dated 1997):
Entries after “also recorded” stand apart in the source; their conditions may differ. Read-outs that look alike come from different tables or passages of the source. Non-standard residues stand in square brackets, D forms with d. Residues, ends and D or L forms follow the SMILES beside them. 1Nal = N[C@@H](Cc1cccc2ccccc12)C(=O)O; NMeF = CN[C@@H](Cc1ccccc1)C(=O)O; Cha = N[C@@H](CC1CCCCC1)C(=O)O; dCha = N[C@H](CC1CCCCC1)C(=O)O

T1: C5a receptor (Homo sapiens, UniProt P21730)
T1 construct: followed by a 20 μL aliquot of neutrophil membrane; endogenous in cells
T1 sequence (P21730 1-350): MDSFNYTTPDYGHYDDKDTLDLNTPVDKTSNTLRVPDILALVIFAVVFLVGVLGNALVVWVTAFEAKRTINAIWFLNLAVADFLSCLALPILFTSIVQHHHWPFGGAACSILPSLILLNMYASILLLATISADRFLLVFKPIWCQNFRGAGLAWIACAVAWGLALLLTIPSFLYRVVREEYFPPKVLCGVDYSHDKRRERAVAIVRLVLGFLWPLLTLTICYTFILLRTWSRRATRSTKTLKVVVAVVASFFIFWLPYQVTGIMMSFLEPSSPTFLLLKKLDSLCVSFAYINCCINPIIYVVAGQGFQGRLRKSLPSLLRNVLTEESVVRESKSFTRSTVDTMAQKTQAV


How the values were obtained:
C5a receptor = molecular target: T1, C5a receptor; experiment: biochemical; type: binding
Method: Initially, we attempted to conduct binding studies with ^125 I radiolabeled C009: ^125 I-Tyr Phe Lys Ala Cha Cha Leu dPhe Arg, SEQ.ID:1:, wherein Cha is cyclohexylalanine, and dPhe is the D isomer of phenylalanine. This compound is a C5a agonist displaying a Ki for C5a of 8 nM. The presence of the tyrosine allowed us to radioiodinate the peptide and establish a binding assay in which both C5a (IC50=0.1 nM) and unlabeled C009 (IC50 =10 nM) inhibit the binding of ^125 I-C009 with concentration dependencies similar to those obtained from competition experiments against ^125 I-C5a.
In FIG. 1, unlabeled C013 is used to compete with ^125 I-labeled C5a. […] In FIG. 2, the C013 is ^125 I labeled. Unlabeled C5a and unlabeled C013 are each used to compete the labeled C013 from C5a binding sites on the membranes. […] In FIG. 3a, ^125 I-C5a is competed from its binding site by unlabeled C064 and unlabeled, natural C5a (as opposed to recombinant C5a, which, however, may also obviously may be used for these purposes). […] In FIG. 3b, the inverse experiment is shown, wherein ^125 I-C064 is displaced by unlabeled C064 and unlabeled nC5a.
Peptide (5 nMoles) are added to 40μL of 0.1 M sodium phosphate, pH 7.6, in a tube, followed by 2 mCi of ^125 I in 20 μL. 10 μL of a freshly made 0.5 mg/mL solution of chloramine T is then added. After 30 seconds of incubation, 10 μL of a freshly prepared 2 mg/mL solution of Na2 S2 O3 is added, the tube is vortexed, and the sample loaded onto a Vydac C4 reverse phase column. The column is developed with a TFA/acetonitrile gradient and the iodinated peptide is isolated. The material is stored at 4° C. in the elution buffer.
To 205 μL binding buffer (50 mM HEPES, pH 7.2, containing 5 mM MgCl2, 1mM CaCl2, 0.5% BSA) in a polypropylene tube is added 30,000CPM of the ^125 I peptide in 20 μL, and 5 μL of a known dilution of the test compound or diluent, followed by a 20 μL aliquot of neutrophil membrane [equivalent to 500,000 neutrophils; Rollins, T.E. et al., J. Biol Chem. 260:7157 (1985); see also U.S. Pat. No. 5,177,190, herein incorporated by reference].
The assay mixture is incubated for 2 hours at 29° C. Binding buffer (2 mL) is then added, the tube is vortexed, and the contents filtered over a Wattmann GF/C filter soaked in 0.33% polyethylenimine. An additional aliquot of binding buffer (2 mL) is added to the tube to rinse the tube, and is then used to wash the filter. The filters are removed from the apparatus and counted. Non-specific backgrounds are determined by performing assays in the presence of either 10 nM C5a, or 1 μM unlabeled peptide. Compounds which inhibit the binding of the labeled peptide are considered to be potential active compounds.

degranulation = details: Mollison et al., cited from earlier work
human neutrophils = experiment: Chemotaxis, Boyden Chamber assay; type: cell-based; details: FIG. 6A
Method: FIG. 6A and 6B. Chemotaxis and G protein activation elicited by the hexapeptides.
This assay is a modification of the procedure described by Sims et. al. (Sims, T. J., Geissler, F. T. and Page, R. C. (1985) J. lmmunol. Meth. 78, 279-291 ). Chemotaxis was assayed in a 48 well Neuro Probe chamber (Neuro Probe, Bethesda, MD) using ^51 Cr-labelled cells. Varying concentrations of C5a or peptide were placed in the lower chamber which was successively covered by a 100 μm nitrocellulose membrane (Neuro Probe, Bethesda, Md.) and two 3 μm polycarbonate filters. After preforming a gradient for 30 minutes at 37° C., 2×10^5 labelled cells were added to the upper chamber and allowed to migrate at 37° C. for one hour. The upper two polycarbonate filters were then discarded and the formed wells cut from the nitrocellulose membrane. The radioactivity present in these filters is a measure of the number of cells that migrated through both polycarbonate filters.
A plot of the initial concentration of agent placed in the lower chamber against the number of cells which migrate (measured by counting the ^51 Cr-labelled cells) is shown in FIG. 6A. For C5a, maximal response occurs at 10 nM. Since the cells migrate in response to the concentration gradient established across the filters, the actual stimulatory concentration is much lower than the nominal value plotted on the abcissa in FIG. 6A.

[1] = test system: human neutrophil membranes; experiment: Inhibition of C5a stimulated GTPase activity; type: biochemical
Method: FIG. 7A and 7B. […] These concentrations of the stimulating agents released 22% and 19% of the total cellular MPO, respectively.
The method of Kupper et al. (Kupper, R. W., Dewald, B., Jakobs, K. H., Baggiolini, M. and Gierschik, P. (1992) Biochem. J. 282, 429-434) was adapted for use in microtiter plates. Neutrophil membranes were suspended in 50 mM triethanolamine-HCl, 5 mM MES, pH 7.3, containing 1 mM EDTA, 5 mM MgCl2, 143 mM NaCl, 0.16 % BSA, 1 mM ouabain, 1 mM AMP-PNP, 0.5 mM ATP, 2.5 U/mL creatine phosphokinase,. 10 mM creatine phosphate, 0.1 mM PMSF and 10 ng/mL each of leupeptin, aprotinin and chymostatin. 50 μL of membranes containing 1-5 μg protein were added to 50 μL of the same buffer containing the test agent and 0.25 μM [γ-^32 P]-GTP (2,000 cpm/pmol) in the wells of a U-shaped microtiter plate. After incubation for 15-30 rain at 29° C., 100 μL of a 10% (w/v) charcoal suspension in 100 mM H3 PO4 was added and plates were centrifuged at 2000 rpm for 5 min. 100 μL of the supernatant was transferred to an Optiplate microtiter plate and 100 μL of Microscint-40 scintillation cocktail was added. Plates were counted in a Packard TopCount microtiter plate counter.

[2] = labeled ligand 125I-C009, read-out: IC50 for inhibition of binding of 125I-C009
[3] = nominal initial concentration in lower chamber

Molecule	IC50 (C5a receptor; [2]) [nM]	degranulating activity in words (degranulation)	chemotactic response in words (human neutrophils)	concentration of maximal chemotactic response (maximal migration) (human neutrophils; [3])	further results
CC(C)C[C@H](NC(=O)[C@H](CC1CCCCC1)NC(=O)[C@H](CC1CCCCC1)NC(=O)[C@H](C)NC(=O)[C@H](CCCCN)NC(=O)[C@H](Cc1ccccc1)NC(=O)[C@@H](N)Cc1ccc(O)cc1)C(=O)N[C@H](Cc1ccccc1)C(=O)N[C@@H](CCCNC(=N)N)C(=O)O [C009, Tyr Phe Lys Ala Cha Cha Leu dPhe Arg] (H-YFKA[Cha][Cha]L[dF]R-OH)	10	–	–	–	change of binding affinity by radioiodination (C5a receptor): about a four-fold loss in binding affinity
CN[C@@H](Cc1ccccc1)C(=O)N[C@@H](CCCCN)C(=O)N1CCC[C@H]1C(=O)N[C@H](CC1CCCCC1)C(=O)N[C@@H](Cc1ccccc1)C(=O)N[C@H](CCCNC(=N)N)C(=O)O [C026, NMeF--K--P-dCha-F-dR] (H-[NMeF]KP[dCha]F[dR]-OH)	–	not only failed to stimulate degranulation, it acted as an antagonist for this property	full agonist in chemotaxis; also recorded: strong chemoattractants; also recorded: as chemotactic as C028	1 µM	degranulating activity in words (degranulation; listed as NMeF--K--P-dCha-F-dR): totally devoid of degranulating activity
CN[C@@H](Cc1ccccc1)C(=O)N[C@@H](CCCCN)C(=O)N1CCC[C@H]1C(=O)N[C@H](CC1CCCCC1)C(=O)N[C@@H](CC1CCCCC1)C(=O)N[C@H](CCCNC(=N)N)C(=O)O [C028, MePhe Lys Pro dCha Cha dArg] (H-[NMeF]KP[dCha][Cha][dR]-OH)	–	exhibited normal degranulating activity	strong chemoattractants	1 µM	–
CN[C@@H](Cc1ccccc1)C(=O)N[C@@H](CCCCN)C(=O)N1CCC[C@H]1C(=O)N[C@H](CC1CCCCC1)C(=O)N[C@@H](Cc1cccc2ccccc12)C(=O)N[C@H](CCCNC(=N)N)C(=O)O [C061] (H-[NMeF]KP[dCha][1Nal][dR]-OH)	–	–	good chemotactic activity; also recorded: elicits as great an accumulation of cells as either C026, or C028, or for that matter, C5a	about 100 μM	–
CN[C@@H](Cc1ccccc1)C(=O)N[C@@H](CCCCN)C(=O)N1CCC[C@H]1C(=O)N[C@H](CC1CCCCC1)C(=O)N[C@@H](Cc1c[nH]c2ccccc12)C(=O)N[C@H](CCCNC(=N)N)C(=O)O [C089]	–	–	little or no ability to stimulate a chemotactic response	–	inhibition of C5a stimulated G protein activation in words [1]: inhibits C5a stimulated degranulation and G protein activation; IC50 ([1]; FIG. 7B, 3 nM C5a): 3000 nM
C5a: 74 amino acid protein derived from the fifth component of serum complement during complement activation (protein, UniProt P01031 678-751, looked up, C5a anaphylatoxin) C5a anaphylatoxin: TLQKKIEEIAAKYKHSVVKKCCYDGACVNNDETCEQRAARISLGPRCIKAFTECCVVASQLRANISHKDMQLGR	0.1	–	–	–	concentration of maximal chemotactic response (human neutrophils; [3]): 10 nM; IC50 (C5a receptor; labeled ligand 125I-C013, read-out: IC50 exhibited by the unlabeled ligand): 0.15 nM; IC50 (C5a receptor; labeled ligand 125I-C064, read-out: IC50 exhibited by the unlabeled ligand): 0.093 nM
